Results reported in patent US20240383954A1, “PEPTIDE INHIBITORS OF INTERLEUKIN-23 RECEPTOR AND THEIR USE TO TREAT INFLAMMATORY DISEASES” (Janssen Biotech, Inc., priority 2020, published 2024).
Positions of bridges follow the written chain, without caps; N, C: chain ends. Non-standard residues stand in square brackets, D forms with d. Residues, ends and D or L forms follow the SMILES beside them. *: point of attachment. Trp(7-Me) = Cc1cccc2c(C[C@H](N)C(=O)O)c[nH]c12; 2Nal = N[C@@H](Cc1ccc2ccccc2c1)C(=O)O; AEF = NCCOc1ccc(C[C@H](N)C(=O)O)cc1; αMeF = C[C@](N)(Cc1ccccc1)C(=O)O; Cit = NC(=O)NCCC[C@H](N)C(=O)O; αMeL = CC(C)C[C@](C)(N)C(=O)O; Pen = CC(C)(S)[C@H](N)C(=O)O; Thp = NC1(C(=O)O)CCOCC1; X2 = c1c[nH]c(CN*)n1; X6 = c1cc(N*)n[nH]1; X7 = Nc1cccc(N*)c1; X4 = C1CC(N*)CCN1

The molecules below were run against IL-23R (Homo sapiens, UniProt Q5VWK5) (assay: cell-based). Details: PBMC pSTAT3 IC50 (nM), PBMCs from healthy donors, IL-23 5 ng/mL, 30 minutes, phosphorylated STAT3.
Sequence of IL-23R (Q5VWK5 24-629): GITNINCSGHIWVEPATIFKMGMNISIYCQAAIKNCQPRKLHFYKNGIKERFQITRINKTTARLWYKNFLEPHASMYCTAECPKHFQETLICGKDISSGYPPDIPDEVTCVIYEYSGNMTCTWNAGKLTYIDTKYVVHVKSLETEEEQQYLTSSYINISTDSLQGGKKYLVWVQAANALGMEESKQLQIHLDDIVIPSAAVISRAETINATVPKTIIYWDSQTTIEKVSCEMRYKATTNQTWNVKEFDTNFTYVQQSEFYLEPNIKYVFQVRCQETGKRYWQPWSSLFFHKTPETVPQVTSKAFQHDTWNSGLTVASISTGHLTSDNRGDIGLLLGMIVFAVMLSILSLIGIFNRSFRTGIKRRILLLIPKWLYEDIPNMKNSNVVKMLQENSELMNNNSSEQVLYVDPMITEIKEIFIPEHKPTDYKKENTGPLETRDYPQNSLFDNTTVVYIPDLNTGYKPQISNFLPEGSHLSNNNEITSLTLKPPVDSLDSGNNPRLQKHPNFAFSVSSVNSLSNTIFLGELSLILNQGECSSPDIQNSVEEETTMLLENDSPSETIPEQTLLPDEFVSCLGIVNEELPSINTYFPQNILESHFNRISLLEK
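Also: cryopreserved PBMCs stimulated at 37 °C in 5% CO2, then lysed, with phosphorylated STAT3 quantified in lysates using a phospho-STAT panel kit.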

In order of rising IC50:
1. CC(=O)N[C@H](CCCNC(=N)N)C(=O)N[C@@H]1C(=O)N[C@@H](CC(N)=O)C(=O)N[C@@H]([C@@H](C)O)C(=O)N[C@@H](Cc2c[nH]c3c(C)cccc23)C(=O)N[C@@H](CCCNC(N)=O)C(=O)N[C@H](C(=O)N[C@@H](Cc2ccc(OCCN)cc2)C(=O)N[C@@H](Cc2ccc3ccccc3c2)C(=O)N[C@@](C)(CC(C)C)C(=O)N[C@@H](CCC(=O)O)C(=O)N[C@@H](CC(N)=O)C(=O)N[C@@](C)(Cc2ccccc2)C(N)=O)C(C)(C)SSC1(C)C [Compound 149, Ac-[(D)Arg]-[Pen]-N-T-[W(7-Me)]-[Cit]-[Pen]-Phe[4-(2-aminoethoxy)]-[2-Nal]-[aMeLeu]-E-N-[a-MePhe]-NH2] (Ac-[dR][Pen]NT[Trp(7-Me)][Cit][Pen][AEF][2Nal][αMeL]EN[αMeF]-NH2; disulfide 2-7)  2.3 nM
2. CC(=O)NCCCC[C@@H]1NC(=O)[C@H](Cc2c[nH]c3c(C)cccc23)NC(=O)[C@H]([C@@H](C)O)NC(=O)[C@H](CC(N)=O)NC(=O)[C@@H](NC(C)=O)C(C)(C)SSC(C)(C)[C@@H](C(=O)N[C@@H](Cc2ccc(OCCN)cc2)C(=O)N[C@@H](Cc2ccc3ccccc3c2)C(=O)NC2(C(=O)N[C@@H](CCCCNC(=O)C(F)(F)F)C(=O)N[C@@H](CC(N)=O)C(=O)NC3(C(N)=O)CCOCC3)CCOCC2)NC1=O [Compound 140, Ac-[Pen]-N-T-[W(7-Me)]-[Lys(Ac)]-[Pen]-Phe[4-(2-aminoethoxy)]-[2-Nal]-[THP]-[Lys(COCF3)]-N-[THP]-NH2]  2.6 nM
3. CC(=O)NCCCC[C@@H]1NC(=O)[C@H](Cc2c[nH]c3c(C)cccc23)NC(=O)[C@H]([C@@H](C)O)NC(=O)[C@H](CC(N)=O)NC(=O)[C@@H](NC(C)=O)C(C)(C)SSC(C)(C)[C@@H](C(=O)N[C@@H](Cc2ccc(OCCN)cc2)C(=O)N[C@@H](Cc2ccc3ccccc3c2)C(=O)NC2(C(=O)N[C@@H](CCCCNC(=O)C(C)(C)C)C(=O)N[C@@H](CC(N)=O)C(=O)NC3(C(N)=O)CCOCC3)CCOCC2)NC1=O [Compound 141, Ac-[Pen]-N-T-[W(7-Me)]-[Lys(Ac)]-[Pen]-Phe[4-(2-aminoethoxy)]-[2-Nal]-[THP]-[Lys(COtBu)]-N-[THP]-NH2]  3.7 nM
4. CC(=O)NCCCC[C@H](NC(=O)[C@](C)(CCCCN)NC(=O)[C@H](Cc1ccc2ccccc2c1)NC(=O)[C@H](Cc1ccc(OCCN)cc1)NC(=O)[C@]1(C)CSSC[C@H](NC(C)=O)C(=O)N[C@@H](CC(N)=O)C(=O)N[C@@H]([C@@H](C)O)C(=O)N[C@@H](Cc2c[nH]c3c(C)cccc23)C(=O)N[C@@H](CCC(N)=O)C(=O)N1)C(=O)N[C@@H](CC(N)=O)C(=O)NC1(C(N)=O)CCOCC1 [Compound 120, Ac-[Cys]-N-T-[W(7-Me)]-Q-[aMeCys]-Phe[4-(2-aminoethoxy)]-[2-Nal]-[a-MeLys]-[Lys(Ac)]-N-[THP]-NH2]  4.9 nM
5. CC(=O)NCCCC[C@@H]1NC(=O)[C@H](Cc2c[nH]c3c(C)cccc23)NC(=O)[C@H]([C@@H](C)O)NC(=O)[C@H](CC(N)=O)NC(=O)[C@@H](NC(C)=O)C(C)(C)SSC(C)(C)[C@@H](C(=O)N[C@@H](Cc2ccc(OCCN)cc2)C(=O)N[C@@H](Cc2ccc3ccccc3c2)C(=O)NC2(C(=O)N[C@@H](CCCCNC(=O)C(C)(C)C)C(=O)N[C@@H](CC(N)=O)C(=O)N[C@@](C)(Cc3ccccc3)C(N)=O)CCOCC2)NC1=O [Compound 139, Ac-[Pen]-N-T-[W(7-Me)]-[Lys(Ac)]-[Pen]-Phe[4-(2-aminoethoxy)]-[2-Nal]-[THP]-[Lys(COtBu)]-N-[a-MePhe]-NH2]  6.6 nM
6. CC(=O)NCCCC[C@@H]1NC(=O)[C@H](Cc2c[nH]c3c(C)cccc23)NC(=O)[C@H]([C@@H](C)O)NC(=O)[C@H](CC(N)=O)NC(=O)[C@@H](NC(C)=O)C(C)(C)SSC(C)(C)[C@@H](C(=O)N[C@@H](Cc2ccc(OCCN)cc2)C(=O)N[C@@H](Cc2ccc3ccccc3c2)C(=O)NC2(C(=O)N[C@@H](CCCCNC(=O)C(F)(F)F)C(=O)N[C@@H](CC(N)=O)C(=O)N[C@@](C)(Cc3ccccc3)C(N)=O)CCOCC2)NC1=O [Compound 138, Ac-[Pen]-N-T-[W(7-Me)]-[Lys(Ac)]-[Pen]-Phe[4-(2-aminoethoxy)]-[2-Nal]-[THP]-[Lys(COCF3)]-N-[a-MePhe]-NH2]  7.6 nM
7. CC(=O)N[C@H](CCCNC(=N)N)C(=O)N[C@@H]1C(=O)N[C@@H](CCC(N)=O)C(=O)N[C@@H]([C@@H](C)O)C(=O)N[C@@H](Cc2c[nH]c3ccccc23)C(=O)N[C@@H](CCC(N)=O)C(=O)N[C@H](C(=O)N[C@@H](Cc2ccc(OCCN)cc2)C(=O)N[C@@H](Cc2ccc3ccccc3c2)C(=O)NC2(C(=O)N[C@@H](CCC(=O)O)C(=O)N[C@@H](CC(N)=O)C(=O)N[C@@H](CC(=O)Nc3cccc(N)c3)C(N)=O)CCOCC2)C(C)(C)SSC1(C)C [Compound 130, Ac-[(D)Arg]-[Pen]-Q-T-W-Q-[Pen]-Phe[4-(2-aminoethoxy)]-[2-Nal]-[THP]-E-N-[(N-(3-aminophenyl))Asn]-NH2] (Ac-[dR][Pen]QTWQ[Pen][AEF][2Nal][Thp]END(X7)-NH2; disulfide 2-7)  9.2 nM
8. CC(=O)N[C@H](CCCNC(=N)N)C(=O)N[C@H]1CCSC[C@@H](C(=O)N[C@@H](Cc2ccc(OCCN)cc2)C(=O)N[C@@H](Cc2ccc3ccccc3c2)C(=O)NC2(C(=O)N[C@@H](CCC(=O)O)C(=O)N[C@@H](CC(N)=O)C(=O)N[C@@](C)(Cc3ccccc3)C(N)=O)CCOCC2)NC(=O)[C@H](CCC(N)=O)NC(=O)[C@H](Cc2c[nH]c3ccccc23)NC(=O)[C@H]([C@@H](C)O)NC(=O)[C@H](CCC(N)=O)NC1=O [Compound 123, Ac-[(D)Arg]-[Abu]-Q-T-W-Q-[Cys]-Phe[4-(2-aminoethoxy)]-[2-Nal]-[THP]-E-N-[a-MePhe]-NH2]  11 nM
9. CC(=O)NCCCC[C@@H]1NC(=O)[C@H](Cc2c[nH]c3c(C)cccc23)NC(=O)[C@H]([C@@H](C)O)NC(=O)[C@H](CC(N)=O)NC(=O)[C@@H](NC(=O)[C@@H](CCCNC(=N)N)NC(C)=O)C(C)(C)SSC(C)(C)[C@@H](C(=O)N[C@@H](Cc2ccc(OCCN)cc2)C(=O)N[C@@H](Cc2ccc3ccccc3c2)C(=O)NC2(C(=O)N[C@@H](CCC(=O)O)C(=O)N[C@@H](CC(N)=O)C(=O)N[C@@](C)(Cc3ccccc3)C(N)=O)CCOCC2)NC1=O [Compound 124, Ac-[(D)Arg]-[Pen]-N-T-[W(7-Me)]-[Lys(Ac)]-[Pen]-Phe[4-(2-aminoethoxy)]-[2-Nal]-[THP]-E-N-[a-MePhe]-NH2] (Ac-[dR][Pen]NT[Trp(7-Me)]K(Ac)[Pen][AEF][2Nal][Thp]EN[αMeF]-NH2; disulfide 2-7)  11 nM
10. CC(=O)N[C@H](CCCNC(=N)N)C(=O)N[C@@H]1C(=O)N[C@@H](CCC(N)=O)C(=O)N[C@@H]([C@@H](C)O)C(=O)N[C@@H](Cc2c[nH]c3ccccc23)C(=O)N[C@@H](CCC(N)=O)C(=O)N[C@H](C(=O)N[C@@H](Cc2ccc(OCCN)cc2)C(=O)N[C@@H](Cc2ccc3ccccc3c2)C(=O)NC2(C(=O)N[C@@H](CCC(=O)O)C(=O)N[C@@H](CC(N)=O)C(=O)N[C@@H](CC(=O)NCc3ncc[nH]3)C(N)=O)CCOCC2)C(C)(C)SSC1(C)C [Compound 137, Ac-[(D)Arg]-[Pen]-Q-T-W-Q-[Pen]-Phe[4-(2-aminoethoxy)]-[2-Nal]-[THP]-E-N-[(N-(imidazol-2-yl)methyl)Asn]-NH2] (Ac-[dR][Pen]QTWQ[Pen][AEF][2Nal][Thp]END(X2)-NH2; disulfide 2-7)  14 nM
11. CC(=O)N[C@H](CCCNC(=N)N)C(=O)N[C@@H]1C(=O)N[C@@H](CCC(N)=O)C(=O)N[C@@H]([C@@H](C)O)C(=O)N[C@@H](Cc2c[nH]c3ccccc23)C(=O)N[C@@H](CCC(N)=O)C(=O)N[C@H](C(=O)N[C@@H](Cc2ccc(OCCN)cc2)C(=O)N[C@@H](Cc2ccc3ccccc3c2)C(=O)NC2(C(=O)N[C@@H](CCC(=O)O)C(=O)N[C@@H](CC(N)=O)C(=O)N[C@@H](CC(=O)Nc3cc[nH]n3)C(N)=O)CCOCC2)C(C)(C)SSC1(C)C [Compound 133, Ac-[(D)Arg]-[Pen]-Q-T-W-Q-[Pen]-Phe[4-(2-aminoethoxy)]-[2-Nal]-[THP]-E-N-[(N-(3-Pyz))Asn]-NH2] (Ac-[dR][Pen]QTWQ[Pen][AEF][2Nal][Thp]END(X6)-NH2; disulfide 2-7)  21 nM
12. CC(=O)NCCCC[C@@H]1NC(=O)[C@H](Cc2c[nH]c3ccccc23)NC(=O)[C@H]([C@@H](C)O)NC(=O)[C@H](CC(N)=O)NC(=O)[C@@H](NC(C)=O)CSSC[C@@](C)(C(=O)N[C@@H](Cc2ccc(OCCN)cc2)C(=O)N[C@@H](Cc2ccc3ccccc3c2)C(=O)N[C@@](C)(CCCCN)C(=O)N[C@@H](CCCCNC(C)=O)C(=O)N[C@@H](CC(N)=O)C(=O)NC2(C(N)=O)CCOCC2)NC1=O [Compound 121, Ac-[Cys]-N-T-W-[Lys(Ac)]-[aMeCys]-Phe[4-(2-aminoethoxy)]-[2-Nal]-[a-MeLys]-[Lys(Ac)]-N-[THP]-NH2]  41 nM
13. CC(=O)N[C@H](CCCNC(=N)N)C(=O)N[C@@H]1C(=O)N[C@@H](CCC(N)=O)C(=O)N[C@@H]([C@@H](C)O)C(=O)N[C@@H](Cc2c[nH]c3ccccc23)C(=O)N[C@@H](CCC(N)=O)C(=O)N[C@H](C(=O)N[C@@H](Cc2ccc(OCCN)cc2)C(=O)N[C@@H](Cc2ccc3ccccc3c2)C(=O)NC2(C(=O)N[C@@H](CCC(=O)O)C(=O)N[C@@H](CC(N)=O)C(=O)N[C@@H](CC(=O)NC3CCNCC3)C(N)=O)CCOCC2)C(C)(C)SSC1(C)C [Compound 127, Ac-[(D)Arg]-[Pen]-Q-T-W-Q-[Pen]-Phe[4-(2-aminoethoxy)]-[2-Nal]-[THP]-E-N-[(N-Pip)Asn]-NH2] (Ac-[dR][Pen]QTWQ[Pen][AEF][2Nal][Thp]END(X4)-NH2; disulfide 2-7)  48 nM
14. CC(=O)NCCCC[C@@H]1NC(=O)[C@H](Cc2c[nH]c3ccccc23)NC(=O)[C@H]([C@@H](C)O)NC(=O)[C@H](CC(N)=O)NC(=O)[C@@H](NC(C)=O)CSSC[C@@](C)(C(=O)N[C@@H](Cc2ccc(OCCN)cc2)C(=O)N[C@@H](Cc2ccc3ccccc3c2)C(=O)N[C@@](C)(CCCCN)C(=O)N[C@@H](CCCCNC(C)=O)C(=O)N[C@@H](CC(N)=O)C(=O)N[C@@](C)(Cc2ccccc2)C(N)=O)NC1=O [Compound 122, Ac-[Cys]-N-T-W-[Lys(Ac)]-[aMeCys]-Phe[4-(2-aminoethoxy)]-[2-Nal]-[a-MeLys]-[Lys(Ac)]-N-[a-MePhe]-NH2]  54 nM
